In patent US8410144B2, “Substituted indolo-pyridinone compounds” (ArQule, Inc., priority 2009, dated 2013):

What was measured:
IGF-1R = IGF-1R (Homo sapiens, UniProt P08069); test: IGFR1 activity assay (ELISA); format: biochemical; settings: read-out: IGF-1R, PCT INH (30 μM), ELISA
Summary of the method: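 IGF1R (0.33 ng/μL final) phosphorylating Pyk-2 (0.05 ng/μL final) in buffer with 12.5 μM ATP, 10 mM MgCl2, 1 h room temperature. Product captured on streptavidin plates, detected with anti-phosphotyrosine and alkaline phosphatase secondary antibody, Attophos fluorescent readout.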

MDA-MB-231 = test: MTS assay, MDA-MB-231 cells; format: cell-based; settings: Homo sapiens, 72 hours, read-out: MDA-MB-231, MTS cell kill % inhibition
Summary of the method: (§1)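 First, seed 3000 cells per well in low-serum (1% FBS) DMEM and culture 18 h. Next, add compounds prepared at 300× in DMSO and diluted 1:40 in DMEM; incubate 72 h. Finally, add MTS/PMS for 4 h and measure absorbance at 492 nm.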

KATO III = test: MTS assay, KATO III cells; format: cell-based; settings: Homo sapiens, 72 hours, read-out: KATO III, MTS cell kill % inhibition
Summary of the method: as §1

NCI-H1299 = test: MTS assay, NCI-H1299 cells; format: cell-based; settings: Homo sapiens, 72 hours, read-out: NCI-H1299, MTS cell kill % inhibition
Summary of the method: as §1

DLD-1 = test: MTS assay, DLD-1 cells; format: cell-based; settings: Homo sapiens, 72 hours, read-out: DLD-1, MTS cell kill % inhibition
Summary of the method: as §1

Sequence of IGF-1R (P08069 31-1367): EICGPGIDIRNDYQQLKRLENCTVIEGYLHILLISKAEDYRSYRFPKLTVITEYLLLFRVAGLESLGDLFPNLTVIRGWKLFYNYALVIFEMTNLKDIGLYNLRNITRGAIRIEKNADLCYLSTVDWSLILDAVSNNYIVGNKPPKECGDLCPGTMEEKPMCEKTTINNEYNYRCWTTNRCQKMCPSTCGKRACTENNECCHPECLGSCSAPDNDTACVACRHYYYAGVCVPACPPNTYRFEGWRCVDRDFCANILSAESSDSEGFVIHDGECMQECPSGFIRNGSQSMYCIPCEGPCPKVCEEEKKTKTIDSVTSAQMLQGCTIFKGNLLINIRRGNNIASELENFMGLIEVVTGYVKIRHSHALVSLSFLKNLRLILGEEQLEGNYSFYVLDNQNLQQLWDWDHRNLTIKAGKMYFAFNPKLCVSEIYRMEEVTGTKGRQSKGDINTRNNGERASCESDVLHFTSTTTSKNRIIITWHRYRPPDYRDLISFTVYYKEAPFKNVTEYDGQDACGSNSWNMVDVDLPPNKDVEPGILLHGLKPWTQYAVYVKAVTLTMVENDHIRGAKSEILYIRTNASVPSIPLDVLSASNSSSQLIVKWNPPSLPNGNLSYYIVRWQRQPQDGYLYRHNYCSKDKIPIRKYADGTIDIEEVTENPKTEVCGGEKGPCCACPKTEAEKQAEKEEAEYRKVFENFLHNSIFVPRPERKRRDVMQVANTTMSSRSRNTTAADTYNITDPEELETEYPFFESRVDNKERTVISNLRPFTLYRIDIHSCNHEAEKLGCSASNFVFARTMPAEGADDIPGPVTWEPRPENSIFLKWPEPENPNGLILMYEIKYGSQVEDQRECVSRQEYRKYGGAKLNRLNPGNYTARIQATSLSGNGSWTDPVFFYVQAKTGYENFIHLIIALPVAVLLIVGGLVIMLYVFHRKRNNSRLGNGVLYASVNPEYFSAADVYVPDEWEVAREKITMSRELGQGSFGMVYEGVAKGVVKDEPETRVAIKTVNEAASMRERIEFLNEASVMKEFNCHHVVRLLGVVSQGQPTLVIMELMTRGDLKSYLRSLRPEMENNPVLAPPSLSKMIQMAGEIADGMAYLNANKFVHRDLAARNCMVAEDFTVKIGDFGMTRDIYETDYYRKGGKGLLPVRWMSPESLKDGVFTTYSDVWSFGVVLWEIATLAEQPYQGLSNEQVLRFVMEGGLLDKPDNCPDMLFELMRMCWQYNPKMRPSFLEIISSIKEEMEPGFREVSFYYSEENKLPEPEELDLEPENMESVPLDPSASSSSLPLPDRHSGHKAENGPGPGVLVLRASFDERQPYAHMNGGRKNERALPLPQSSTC

| Structure (SMILES) | inhibition at 30 µM (IGF-1R) | melting point | inhibition at 10 µM (MDA-MB-231) | inhibition at 10 µM (KATO III) | inhibition at 10 µM (NCI-H1299) | inhibition at 10 µM (DLD-1) |
| --- | --- | --- | --- | --- | --- | --- |
| CCN(CC)CCCNC(=O)c1ccc2[nH]c(-c3ccc[nH]c3=O)c(-c3ccccc3)c2c1 [Compound 2, N-[3-(diethylamino)propyl]-2-(2-oxo-1,2-dihydropyridin-3-yl)-3-phenyl-1H-indole-5-carboxamide] | 80 to 100% | 190 to 198 °C | 50 to 79% | 80 to 100% | 50 to 79% | 50 to 79% |
| CN1CCCC1CCNC(=O)c1ccc2[nH]c(-c3ccc[nH]c3=O)c(-c3ccccc3)c2c1 (stereo not shown) [Compound 5, N-[2-(1-methylpyrrolidin-2-yl)ethyl]-2-(2-oxo-1,2-dihydropyridin-3-yl)-3-phenyl-1H-indole-5-carboxamide] | < 50% | 185 to 188 °C | 50 to 79% | 80 to 100% | 80 to 100% | 50 to 79% |
| O=C(c1ccc2[nH]c(-c3ccc[nH]c3=O)c(-c3ccc(-c4ccccc4)cc3)c2c1)N1CCN(c2cnccn2)CC1 [Compound 45, 3-{3-biphenyl-4-yl-5-[(4-pyrazin-2-ylpiperazin-1-yl)carbonyl]-1H-indol-2-yl}pyridin-2(1H)-one] | 50 to 79% | 289 to 296 °C | 80 to 100% | 80 to 100% | 80 to 100% | 50 to 79% |
| O=c1[nH]cccc1-c1[nH]c2ccccc2c1C1CCN(Cc2cccc3ccccc23)CC1 [Compound 88, 3-{3-[1-(1-naphthylmethyl)piperidin-4-yl]-1H-indol-2-yl}pyridin-2(1H)-one] | < 50% | 205 to 206 °C | 80 to 100% | < 50% | < 50% | 80 to 100% |
| CN(CCc1ccccc1)C(=O)c1ccc2[nH]c(-c3ccc[nH]c3=O)c(-c3ccc(-c4ccccc4)cc3)c2c1 [Compound 43, 3-biphenyl-4-yl-N-methyl-2-(2-oxo-1,2-dihydropyridin-3-yl)-N-(2-phenylethyl)-1H-indole-5-carboxamide] | < 50% | 136 to 141 °C | < 50% | 50 to 79% | 50 to 79% | 50 to 79% |
| O=C(c1ccc2[nH]c(-c3ccc[nH]c3=O)c(-c3ccc(-c4ccccc4)cc3)c2c1)N1CCCCC1 [Compound 38, 3-[3-biphenyl-4-yl-5-(piperidin-1-ylcarbonyl)-1H-indol-2-yl]pyridin-2(1H)-one] | < 50% | 170 to 182 °C | 80 to 100% | 80 to 100% | 80 to 100% | 80 to 100% |

Now from value to molecule, other results behind:

| inhibition at 30 µM (IGF-1R) | melting point | Structure (SMILES) | inhibition at 10 µM (MDA-MB-231) | inhibition at 10 µM (KATO III) | inhibition at 10 µM (NCI-H1299) | inhibition at 10 µM (DLD-1) |
| --- | --- | --- | --- | --- | --- | --- |
| 80 to 100% | 130 to 132 °C | O=C(NCCCN1CCOCC1)c1ccc2[nH]c(-c3ccc[nH]c3=O)cc2c1 [Compound 55, N-(3-morpholin-4-ylpropyl)-2-(2-oxo-1,2-dihydropyridin-3-yl)-1H-indole-5-carboxamide] | < 50% | < 50% |  |  |
| 80 to 100% | 143 to 145 °C | CCOc1ccc(-c2c(-c3ccc[nH]c3=O)[nH]c3ccc(C(=O)NCCCN4CCOCC4)cc23)cc1 [Compound 79, 3-(4-ethoxyphenyl)-N-(3-morpholin-4-ylpropyl)-2-(2-oxo-1,2-dihydropyridin-3-yl)-1H-indole-5-carboxamide] | 80 to 100% | 80 to 100% | 80 to 100% | 80 to 100% |
| 80 to 100% | 138 to 142 °C | O=C(NCCCN1CCOCC1)c1ccc2[nH]c(-c3ccc[nH]c3=O)c(Br)c2c1 [Compound 56, 3-bromo-N-(3-morpholin-4-ylpropyl)-2-(2-oxo-1,2-dihydropyridin-3-yl)-1H-indole-5-carboxamide] | < 50% | < 50% | < 50% | < 50% |
